From PMC8682738, “Constrained peptides mimic a viral suppressor of RNA silencing” (Nucleic Acids Research, 2021) come the findings set out here.

Positions of bridges follow the written chain, without caps; N, C: chain ends. Non-standard residues stand in square brackets, D forms with d. Residues, ends and D or L forms follow the SMILES beside them. *: point of attachment. FITC = O=C1OC2(c3ccc(O)cc3Oc3cc(O)ccc32)c2ccc(NC(=S)*)cc21; S5 = C=CCCC[C@](C)(N)C(=O)O; AEEA = NCCOCCOCC(=O)O

The target in one data set is proteinase K (Parengyodontium album, UniProt P06873). Briefly: Protease stability assay. It is filed as in vitro ADME. Conditions: proteinase K 10 μg·ml^−1, fluorescein-labeled peptide 50 μM, 10 mM Tris pH 8.0, 150 mM NaCl, room temperature, HPLC absorbance 210 nm, exponential decay fit. As for the experimental part:
Protease stability assays were performed in analogy to a previously published protocol ([47]). Stocks of fluorescein-labeled peptides were prepared to a concentration of 55.5 μM in assay buffer (10 mM Tris, pH 8.0, 150 mM NaCl) and separately stocks of proteinase K also in assay buffer (c = 100 μg·ml^−1). To begin each experiment, peptide and proteinase K stocks were mixed (final concentrations: c = 10 μg·ml^−1 proteinase K, c = 50 μM fluorescein-labeled peptide; final volume = 500 μl) and incubated at room temperature. At each time point, 50 μl of the reaction mixture was quenched by adding 100 μl of TFA/ACN/H2O (v/v/v, 1:49:49) and subsequently incubated for 2 min on ice. Following centrifugation (15 min, 13200 rpm, 4°C), samples (45 μl) were monitored by analytical HPLC using a linear gradient of 10–60% HPLC solvent B over 20 min. The amount of remaining peptide was quantified via absorbance at λ = 210 nm (intact peptide (%)) and plotted against time (t) (h). Half-life (t1/2) was calculated by fitting the data to an exponential decay using the software Prism 5.0 (GraphPad).

The nature of data set [1]: CD spectroscopy, secondary structure content. It is filed as physicochemical. Conditions: fluorescein-labeled peptide 75 μM, 10 mM sodium phosphate pH 7.4, CDNN/PEPFIT. As for the experimental part:
Spectra of fluorescein-labeled peptides were recorded with a J-715 circular dichroism spectrometer (Jasco) using a stoppered quartz cuvette (1 mm; Hellma). Peptide samples (c = 75 μM) were prepared in buffer: 10 mM disodium hydrogen phosphate, pH 7.4. For each sample, 10 CD spectra were measured between λ = 190 and 260 nm with continuous scan mode (10 mdeg sensitivity, 1.0 nm resolution, 1.0 nm bandwidth, 2 s integration time, 50 nm/min scan rate). Obtained spectra were averaged, then subtracted from a reference buffer spectrum and smoothed using a fast Fourier transform filter (FFT filter). The mean residue ellipticity (Θ) (deg·cm^2·dmol^−1·10^4) was calculated using Formula (2) and plotted against wavelength (λ) (nm). The ratio of secondary structure elements was calculated with CDNN using the PEPFIT set of reference spectra for secondary structure determination ([45],[46]):(2) where [Θ]m = mean molar ellipticity per peptide bond (degree·cm^2·dmol^−1·10^4), Θ = measured ellipticity (degree), d = optical path length (cm), cg = mass concentration (g·l^−1), MRW = mean residue weight, M = molar mass of the peptide (g·mol^−1) and N = number of peptide bonds.

Chain of proteinase K (P06873 106-384): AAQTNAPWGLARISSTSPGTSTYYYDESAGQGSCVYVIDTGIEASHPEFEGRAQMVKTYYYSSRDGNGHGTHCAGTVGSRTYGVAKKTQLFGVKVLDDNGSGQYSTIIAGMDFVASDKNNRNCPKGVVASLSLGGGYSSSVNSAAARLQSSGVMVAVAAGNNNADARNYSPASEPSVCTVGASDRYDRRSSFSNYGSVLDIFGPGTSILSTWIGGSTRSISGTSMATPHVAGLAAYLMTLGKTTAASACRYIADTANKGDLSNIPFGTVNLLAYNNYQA

As for `CC(C)C[C@H](NC(=O)[C@H](CCC(=O)O)NC(=O)[C@H](CO)NC(=O)[C@H](CCCNC(=N)N)NC(=O)[C@H](CCCNC(=N)N)NC(=O)[C@H](CCC(N)=O)NC(=O)[C@H](CCC(=O)O)NC(=O)[C@H](CO)NC(=O)[C@@H]1CCCN1C(=O)[C@H](CO)NC(=O)[C@H](CCCCN)NC(=O)[C@H](Cc1c[nH]cn1)NC(=O)CNC(=O)[C@H](CCCNC(=N)N)NC(=O)[C@H](CCC(=O)O)NC(=O)[C@H](CCCCN)NC(=O)[C@H](CCCNC(=N)N)NC(=O)[C@H](CC(N)=O)NC(=O)[C@]1(C)CCCC=CCCC[C@](C)(NC(=O)[C@H](CCCNC(=N)N)NC(=O)[C@H](CCC(N)=O)NC(=O)[C@H](C)NC(=O)[C@H](CCC(N)=O)NC(=O)[C@H](CCCCN)NC(=O)[C@H](CCCCN)NC(=O)COCCOCCNC(=S)Nc2ccc3c(c2)C(=O)OC32c3ccc(O)cc3Oc3cc(O)ccc32)C(=O)N[C@@H](CCCNC(=N)N)C(=O)N[C@@H](Cc2c[nH]cn2)C(=O)N[C@@H](CCCCN)C(=O)N1)C(=O)N[C@@H](Cc1c[nH]c2ccccc12)C(=O)N[C@@H](Cc1c[nH]cn1)C(=O)N[C@@H](C)C(=O)N[C@@H](CCCNC(=N)N)C(N)=O` [A2] ({FITC-AEEA}-KKQAQR[S5]RHK[S5]NRKERGHKSPSEQRRSELWHAR-NH2; staple 7-11), the half-life t1/2 is 3 min. Also, the “Half-life (t1/2)” value on proteinase K stood at 2.3 min. In data set [1], the Random coil was 51.3%, the β-Sheet came out at 21.6% and the β-Turn was 7.9%. Further, the “Helix (α-helicity)” value in data set [1] (unbound) is 21.9%.
